From US9387219B2, “Edible composition” (Conopco, Inc., priority 2011, dated 2016)
Several values for one entry are separate records, joined by “and”; a condition that tells them apart may be missing. Equal entries are not always repeated.

What was measured:
[1] = target: T1, SGLT1 (Homo sapiens, UniProt P13866); experiment: Glucose transport inhibitor cell screening assay, 5 mM D-glucose for 15 minutes (SGLT1 inhibition); type: cell-based; details: for SGLT1 inhibitory activity (in words): Caco-2 cell model; for Class (assigned class of transporter inhibited): assigned from % inhibition at 5 mM and 25 mM D-glucose in Caco-2 cells
T1 construct: endogenous in cells; host or cells: differentiated Caco-2 cell monolayers (ATCC)
T1 sequence (P13866 1-664): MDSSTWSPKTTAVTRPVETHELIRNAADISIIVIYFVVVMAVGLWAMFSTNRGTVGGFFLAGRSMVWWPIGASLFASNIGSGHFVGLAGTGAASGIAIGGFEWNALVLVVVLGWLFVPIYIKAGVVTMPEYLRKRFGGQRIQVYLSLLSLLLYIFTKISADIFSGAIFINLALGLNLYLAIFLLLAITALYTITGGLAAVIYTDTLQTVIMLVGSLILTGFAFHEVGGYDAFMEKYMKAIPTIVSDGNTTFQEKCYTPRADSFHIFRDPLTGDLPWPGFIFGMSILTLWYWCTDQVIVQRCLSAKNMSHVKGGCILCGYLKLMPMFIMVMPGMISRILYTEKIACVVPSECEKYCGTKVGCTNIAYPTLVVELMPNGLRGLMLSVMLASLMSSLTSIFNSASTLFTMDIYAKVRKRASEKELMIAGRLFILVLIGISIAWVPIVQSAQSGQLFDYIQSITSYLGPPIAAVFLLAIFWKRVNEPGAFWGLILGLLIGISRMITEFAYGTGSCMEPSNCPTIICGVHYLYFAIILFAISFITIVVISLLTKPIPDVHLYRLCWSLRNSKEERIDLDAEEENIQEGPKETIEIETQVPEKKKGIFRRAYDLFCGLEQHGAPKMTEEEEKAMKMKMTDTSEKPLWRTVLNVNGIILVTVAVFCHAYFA
Method: (§1) Human epithelial colorectal adenocarcinoma (Caco-2) cells were obtained from the American Type Culture Collection (ATCC) and cultured in Growth Medium consisting of Dulbecco's modified Eagle's medium (containing Glutamax-1, 4.5 g/L D-glucose and 25 mM 4-(2-hydroxyethyl)-1-piperazine ethanesulphonic acid (Hepes) (Invitrogen)), 10% foetal bovine serum (Sigma), 1% non-essential amino acids (Invitrogen) and 1 mM sodium pyruvate (Sigma)). The cells were routinely passaged at approximately 80% confluence using TrypLE™ Express Stable Trypsin-Like Enzyme (Invitrogen) to detach the cells, and seeded at approximately 114 cells per mm^2 in fresh tissue culture flasks. Only cells between the passage numbers 45 and 49 were used for experiments.
(§2) Corning® HTS Transwell® 96 well permeable insert supports (Sigma) were collagen coated with 40 μl of 50 μg/ml rat tail collagen type I (BD Biosciences) in 0.02 M acetic acid for one hour at room temperature under sterile conditions. The inserts were washed twice in phosphate buffered saline (PBS (Invitrogen)) and the Caco-2 cells seeded into the inserts at 9.6×10^5 cell/ml (75 μl per insert) in Growth Medium and 30 ml of Growth Medium added to the feeder plate below. The cells were left to attach to the collagen matrix and form monolayers over 48 hours at 37° C., 5% CO2. Both inserts and feeder plate were washed in PBS and the cells incubated with BD Entero-STIM™ Enterocyte Differentiation Medium containing MITO+™ Serum Extender solution (both BD Biosciences), 75 μl per insert and 30 ml in the feeder plate, for a further 48 hours at 37° C., 5% CO2.
(§3) Differentiated cell monolayers were washed gently in Dulbecco's Phosphate Buffered Saline containing CaCl2 and MgCl2 (PBS(+) (Invitrogen)) and the inserts transferred to a new Corning® HTS Transwell®-96 well receiver plate (Sigma). The cells were incubated with fresh PBS(+) (75 μl per insert and 225 μl per well) for 60 minutes at 37° C., 5% CO2. The PBS(+) was gently aspirated and replaced with 75 μl per insert of either 5 mM D-glucose (Sigma)±test active or 25 mM D-glucose±test active in triplicate and 225 μl per well of PBS(+) quickly added to each well. The 5 mM glucose wells and the 25 mM glucose wells were incubated at 37° C., 5% CO2 for 15 minutes and 30 minutes, respectively. Details of all the actives tested are found in table 1. The cell inserts were transferred to a new receiver plate, the supernatant gently aspirated from the cells and replaced with 100 μl of 100 μM of Lucifer Yellow (Sigma) solution to confirm the integrity of the monolayers. 225 μl of PBS(+) was added to each well and incubated at 37° C., 5% CO2 for 1 hour. The cell inserts were then discarded and the permeability of the membranes to Lucifer Yellow checked by measuring the fluorescence of the samples at 485 nm (excitation) and 530 nm (emission) on a Spectramax Gemini EM fluorescence microplate reader.
(§4) The amount of glucose transported across the cell monolayers was measured using a glucose assay based on Invitrogen's Amplex Red Glucose/Glucose oxidase Assay Kit. Briefly, 50 μl of each test sample was transferred to a black sided/clear bottom 96-well plate (Greiner Bio-One) to which 100 μl of reaction buffer (0.5 μl 10 mM Ampliflu Red, 1 μl 10 U/ml Horse Radish peroxidase, 1 μl 100 U/ml glucose oxidase and 97.5 μl PBS (all Sigma)) was added. After 10 minutes incubation at room temperature, the fluorescence of the samples were measured at 530 nm (excitation) and 590 nm (emission) on a Spectramax Gemini EM fluorescence microplate reader and the glucose concentration extrapolated from a standard curve.
(§5) At higher D-glucose concentrations, the SGLT1 transporter becomes saturated and consequently the majority of glucose transport across the monolayer is driven by the low affinity, high capacity GLUT2 transporter that is targeted to the apical membrane only following an initial SGLT1-dependent transport of glucose.

[2] = target: T2, GLUT2 (Homo sapiens, UniProt P11168); experiment: Glucose transport inhibitor cell screening assay, 25 mM D-glucose for 30 minutes (GLUT2 inhibition); type: cell-based; details: for GLUT2 inhibitory activity (in words): Caco-2 cell model
T2 construct: endogenous in cells; host or cells: differentiated Caco-2 cell monolayers (ATCC)
T2 sequence (P11168 1-524): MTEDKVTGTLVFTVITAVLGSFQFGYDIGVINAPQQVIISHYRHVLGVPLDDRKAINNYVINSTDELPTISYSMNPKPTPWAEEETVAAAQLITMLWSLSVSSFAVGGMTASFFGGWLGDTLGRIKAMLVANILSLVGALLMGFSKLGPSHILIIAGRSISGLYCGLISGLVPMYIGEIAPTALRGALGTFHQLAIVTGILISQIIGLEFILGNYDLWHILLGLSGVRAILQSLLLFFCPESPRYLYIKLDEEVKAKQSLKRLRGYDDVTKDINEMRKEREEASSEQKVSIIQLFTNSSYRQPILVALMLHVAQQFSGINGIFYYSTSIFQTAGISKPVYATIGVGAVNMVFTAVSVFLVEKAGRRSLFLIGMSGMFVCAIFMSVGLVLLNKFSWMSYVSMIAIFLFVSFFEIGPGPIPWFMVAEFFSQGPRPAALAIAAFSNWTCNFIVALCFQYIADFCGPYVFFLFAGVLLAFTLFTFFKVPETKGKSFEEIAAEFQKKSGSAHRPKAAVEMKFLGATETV
Method: as §1, §2, §3, §4, §5

[3] = target: T3, Human Lactase Phloridzin Hydrolase (hLPH) (Homo sapiens, UniProt P09848); experiment: hLPH enzyme assay (glucoside hydrolysis by LPH extract from Caco-2 cells); type: in vitro ADME; details: for μM substrate hydrolysed/hr / Resistance to hydrolysis-% Q4G: glucoside 1.0 mM, 1 hour at 37° C.; for μM substrate hydrolysed/hr: 10% LPH extract (Caco2 cell-line), pH 6.0; for Resistance to hydrolysis-% Q4G: relative to Q4G, 10% LPH extract
T3 construct: endogenous in cells; host or cells: Caco-2 cells held at confluence for 21 days; trans-membrane protein extract passed through a G-25 Sephadex spin column
T3 sequence (P09848 869-1927): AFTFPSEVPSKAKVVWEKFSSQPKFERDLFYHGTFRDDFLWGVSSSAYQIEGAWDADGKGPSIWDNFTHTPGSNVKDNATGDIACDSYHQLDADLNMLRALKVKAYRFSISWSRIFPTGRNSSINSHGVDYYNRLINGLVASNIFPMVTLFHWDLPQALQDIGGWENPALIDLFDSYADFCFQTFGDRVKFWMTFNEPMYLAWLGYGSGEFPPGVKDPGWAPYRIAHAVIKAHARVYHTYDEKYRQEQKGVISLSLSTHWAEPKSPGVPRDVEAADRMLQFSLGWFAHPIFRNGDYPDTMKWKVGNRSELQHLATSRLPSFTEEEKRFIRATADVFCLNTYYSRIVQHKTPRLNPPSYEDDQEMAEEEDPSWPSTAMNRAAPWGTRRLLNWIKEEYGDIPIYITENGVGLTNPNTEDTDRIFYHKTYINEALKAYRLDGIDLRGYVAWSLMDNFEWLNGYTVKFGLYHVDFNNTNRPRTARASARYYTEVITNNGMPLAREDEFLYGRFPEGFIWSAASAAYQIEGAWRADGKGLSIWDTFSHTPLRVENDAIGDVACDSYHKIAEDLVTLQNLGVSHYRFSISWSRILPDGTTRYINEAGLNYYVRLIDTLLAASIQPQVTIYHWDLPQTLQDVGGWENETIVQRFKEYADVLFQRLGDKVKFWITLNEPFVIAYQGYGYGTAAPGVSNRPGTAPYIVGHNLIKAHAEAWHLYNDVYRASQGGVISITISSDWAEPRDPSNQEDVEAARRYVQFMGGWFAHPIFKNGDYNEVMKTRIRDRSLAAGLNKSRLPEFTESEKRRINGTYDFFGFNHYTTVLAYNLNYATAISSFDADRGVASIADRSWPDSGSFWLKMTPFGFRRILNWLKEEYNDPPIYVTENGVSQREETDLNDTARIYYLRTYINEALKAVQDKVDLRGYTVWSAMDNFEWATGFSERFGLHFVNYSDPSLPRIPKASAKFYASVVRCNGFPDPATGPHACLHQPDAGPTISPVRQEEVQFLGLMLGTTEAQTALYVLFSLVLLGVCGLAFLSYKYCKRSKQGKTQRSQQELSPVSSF
Method: Extracts were stored at −80° C. in 50 ul aliquots. Prior to use extracts were semi-purified, removing low molecular weight interfering components by passing through a small G-25 Sephadex 50-100 μl spin-column (Roche or ThermoFisher Scientific). 10 μl of semi-purified LPH extract was added to 90 μl of glucoside (1.0 mM final concentration) in 0.1 M maleate (Sigma) buffer, pH 6.0 and incubated for 60 minutes at 37° C. The reaction was terminated by addition of 200 μl 2M Tris (Sigma), pH 8.0. […] This allowed a full recovery of glucose which was measured using the Amplex® Red Glucose/Glucose Oxidase Assay. […] Fluorescence was read on a SpectraMax Gemini EM SN plate reader (Molecular Devices) (excitation. 530 nm and emission at 590 nm).

[4] = differentiated Caco-2 monolayer, 5 mM D-glucose, 15 minutes, active at 300 uM
[5] = differentiated Caco-2 monolayer, 30 minutes, active at 150 uM

Compound | SGLT1 inhibitory activity (in words) ([1]; 5 mM D-glucose) | Class (assigned class of transporter inhibited) [1] | % Glucose Transport inhibition 25 mM [2, 5] | μM substrate hydrolysed/hr [3] | Resistance to hydrolysis-% Q4G [3] | further results
O=c1cc(-c2ccc(O)cc2)oc2c([C@@H]3O[C@H](CO)[C@@H](O)[C@H](O)[C@H]3O)c(O)cc(O)c12 [Apigenin-8-C-glucoside] | inhibition of SGLT1 | SGLT1 | 5.76% | 0.685 μM substrate hydrolysed/hr | 77.90% | % Glucose Transport inhibition 5 mM [1, 4]: 33.84%
O=c1c(O[C@@H]2O[C@H](CO)[C@@H](O)[C@H](O)[C@H]2O)c(-c2ccc(O)cc2)oc2cc(O)cc(O)c12 [Kaempferol 3-O-glucoside] | inhibition of SGLT1 | SGLT1 |  | 0.224 μM substrate hydrolysed/hr |  | Resistance to hydrolysis-% Q4G ([3]; listed as K3G): 92.8% and 92.78%
O=c1c(O)c(-c2ccc(O)cc2)oc2cc(O[C@@H]3O[C@H](CO)[C@@H](O)[C@H](O)[C@H]3O)cc(O)c12 [Kaempferol 7-O-glucoside] | inhibition of SGLT1 | SGLT1 | 14.42% | 0.618 μM substrate hydrolysed/hr | 80.05% | % Glucose Transport inhibition 5 mM [1, 4]: 43.89%
O=c1cc(-c2ccc(O)c(O)c2)oc2cc(O[C@@H]3O[C@H](CO)[C@@H](O)[C@H](O)[C@H]3O)cc(O)c12 [Luteolin-7-glucoside] | inhibition of SGLT1 | SGLT1 | 17.03% | 0.814 μM substrate hydrolysed/hr | 73.72% | % Glucose Transport inhibition 5 mM [1, 4]: 44.09%
O=C1CC(c2ccc(O)cc2)Oc2cc(O[C@@H]3O[C@H](CO)[C@@H](O)[C@H](O)[C@H]3O)cc(O)c21 (stereo partly drawn) [Naringenin-7-O-glucoside] | inhibition of SGLT1 | SGLT1 | 0.06% | 1.564 μM substrate hydrolysed/hr |  | Resistance to hydrolysis-% Q4G ([3]; listed as N7G): 49.5% and 49.52%
OC[C@H]1O[C@@H](Oc2cc3c(O)cc(O)cc3[o+]c2-c2ccc(O)cc2)[C@H](O)[C@@H](O)[C@@H]1O [Pelargonidin-3-glucoside] | inhibition of SGLT1 | SGLT1 |  | 1.272 μM substrate hydrolysed/hr | 58.94% | 
O=C(CCc1ccc(O)cc1)c1c(O)cc(O)cc1O[C@@H]1O[C@H](CO)[C@@H](O)[C@H](O)[C@H]1O [Phloridzin, reference compound] |  |  |  | 0.507 μM substrate hydrolysed/hr | 83.64% | 
O=c1c(O[C@@H]2O[C@H](CO)[C@@H](O)[C@H](O)[C@H]2O)c(-c2ccc(O)c(O)c2)oc2cc(O)cc(O)c12 [Quercetin-3-glucoside] | inhibition of SGLT1 | SGLT1 |  | 0.178 μM substrate hydrolysed/hr |  | 
O=c1c(O)c(-c2ccc(O[C@@H]3O[C@H](CO)[C@@H](O)[C@H](O)[C@H]3O)c(O)c2)oc2cc(O)cc(O)c12 [Quercetin-4-glucoside, reference compound] | inhibition of SGLT1 | SGLT1 |  |  |  | degradation by hLPH (in words) ([3]; Caco-2): highest degree of degradation by hLPH
O=c1c(O)c(-c2ccc(O)c(O)c2)oc2cc(O)cc(O)c12 [Quercetin] |  | GLUT2 (GLUT2 inhibitors having ≧20% inhibition at both 5 mM and 25 mM D-glucose levels) |  |  |  | inhibition at 300 µM [1, 4]: 80.8%; inhibition at 150 µM [2, 5]: 61.4%
O=C(O)/C=C/c1ccc(O)c(O)c1 [caffeic acid] | no inhibitory activity |  |  |  |  | GLUT2 inhibitory activity (in words) [2]: no inhibitory activity
O=C(/C=C/c1ccc(O)c(O)c1)O[C@@H]1C[C@](O)(C(=O)O)C[C@@H](O)[C@H]1O [chlorogenic acid] | no inhibitory activity |  |  |  |  | GLUT2 inhibitory activity (in words) [2]: no inhibitory activity
O=C(/C=C/c1ccc(O)c(O)c1)O[C@H](Cc1ccc(O)c(O)c1)C(=O)O [rosmarinic acid] | no inhibitory activity |  |  |  |  | GLUT2 inhibitory activity (in words) [2]: no inhibitory activity
